“Also recorded” adds a separate entry of the source. Blank lines part the entries; values can stand above or below the molecule they belong to.
Key:
[1] = tested on: acetylation of the microtubule network in HeLa cells; assay: immunofluorescence microscopy of acetylated microtubule network; type: cell-based; conditions: 4 h
Text: Cells were then stained with an anti-acetyl-α-tubulin antibody (Sigma-Aldrich, T6793) and then probed with a secondary Alexa 546 conjugated anti-mouse-antibody (Invitrogen). Nuclei were counterstained with DAPI (4',6-diamidino-2-phenylindole). Coverslips were mounted with FluoroMount (Sigma-Aldrich) and sealed with DPX Mountant (Sigma-Aldrich). Images of the mounted samples were acquired on a Leica DM500 microscope equipped with a Leica DFC 395 FX camera and HBO 100 W lamp[40]. The microscope was run with the Leica Application Suite 4.4.0 software. Chroma UV filter set (No. C40888) and Leica N2.1 filter set (No. 513832) were used for DAPI and Alexa 546 signal acquisition, respectively, with a HCX FL Fluotar 40x/0.75 (dry) objective. Further details about the equipment and the settings that were used to acquire the images are found in the Supplementary Methods section. Unprocessed images are found in Supplementary Fig. 9. […]
Immunocytochemistry equipment and settings. The signal of Alexa 546 and DAPI of the same region were acquired with constant illumination parameters as grayscale 8-bit 600 dpi tiff files (1600u 1200 pixels). Alexa 546 was acquired after 639.1 ms with a gamma factor of 0.65 without multiplying. The gain was set to 1. DAPI-stained images were acquired after about 20 ms with the same parameters as the one for Alexa 546 image acquisition. The temperature in the microscope room was kept at RT. Representative regions of each samples were processed with Adobe Photoshop CS2 to generate images in RGB mode by copying the appropriate original greyscale images to the blue (nuclei, DAPI) and the red (acetylated D-tubulin signal, Alexa 546) channel, respectively. As adjustment, a minimal background subtraction was applied on all images during processing in the same manner. The resolution was changed from 600 dpi (source images) to 450 dpi without resampling (Fig. 7 of the main article). LUT (CLUT) of grayscale images of the acetylated D-tubulin signal and of the DAPI signal are shown in Supplementary Fig. 8. […]

human Sirt1 = target: T1, human Sirt1 (Homo sapiens, UniProt Q96EB6); assay: fluorescence-based in vitro sirtuin assay, substrate ZMAL; conditions: at 50 μM
T1 sequence (Q96EB6 133-747): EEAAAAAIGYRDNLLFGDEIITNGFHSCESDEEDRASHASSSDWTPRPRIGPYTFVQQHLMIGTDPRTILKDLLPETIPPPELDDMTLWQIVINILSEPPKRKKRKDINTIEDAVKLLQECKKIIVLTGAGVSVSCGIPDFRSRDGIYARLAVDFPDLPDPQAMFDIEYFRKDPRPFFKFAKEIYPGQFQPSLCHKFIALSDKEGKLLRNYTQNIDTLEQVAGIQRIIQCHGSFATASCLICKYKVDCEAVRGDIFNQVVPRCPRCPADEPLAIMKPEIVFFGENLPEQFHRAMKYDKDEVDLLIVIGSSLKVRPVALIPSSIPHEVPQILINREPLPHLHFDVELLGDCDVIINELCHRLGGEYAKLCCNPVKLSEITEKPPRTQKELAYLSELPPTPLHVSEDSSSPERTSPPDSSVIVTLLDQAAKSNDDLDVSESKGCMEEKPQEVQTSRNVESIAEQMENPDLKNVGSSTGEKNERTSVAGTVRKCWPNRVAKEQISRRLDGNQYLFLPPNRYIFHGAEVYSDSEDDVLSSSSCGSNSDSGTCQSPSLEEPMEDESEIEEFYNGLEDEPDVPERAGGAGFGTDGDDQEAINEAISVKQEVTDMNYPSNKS

Sirt2 = target: Sirt2; set-up: method as in earlier work; conditions: ref 2-9 (supplementary references), cited from earlier work
Sirt1 = tested on: Sirt1; set-up: method as in earlier work; conditions: selectivity profile, Sirt1 entry; ref 2-9 (supplementary references); cited from earlier work
Sirt3 = tested on: Sirt3; set-up: method as in earlier work; conditions: selectivity profile, Sirt3 entry; † inhibition substrate-dependent; ref 2-9 (supplementary references); cited from earlier work
[2] = tested on: p53-Lys382-acetylation in U2OS cells; assay: p53 acetylation after ultraviolet exposure, western blot; type: cell-based; conditions: 1 h pretreatment, 20 J cm^-2 UV, further 6 h
Protocol: U2OS cells (ATCC accession no. HTB-96) were seeded and cultured until they reached 90% confluency. […] Cells were incubated for an additional 6 h in the presence of the inhibitor and then lysed in IPLS (50 mM Tris/HCl, 150 mM NaCl; 0.5 mM EDTA; 0.5% (v/v) NP-40; 1 × Complete Protease Inhibitors (Roche), pH 8.0) and resuspended in 1 × Laemmli Buffer. Samples were then separated on SDS–PAGE, transferred to a nitrocellulose membrane (Bio-Rad), blocked with non-fat dry milk (Roth, 5% (w/v), TBS, 0.1% (v/v) Tween 20) and probed with anti-acetyl-p53 K382 (Cell Signaling, #2522), anti-p53 DO.1 (Santa Cruz Biotechnology, sc-126) and anti-vinculin (Cell Signaling, #4650) as a loading control. Uncropped blots are shown in the Supplementary Fig. 10.

[3] = tested on: mitochondrial lysine-acetylation in HEK293 cells; assay: mitochondrial protein acetylation, western blot of mitochondrial extracts; type: cell-based; conditions: 16 h
Protocol: page 27: Cell cultiva tion. HEK-293 cells (ATCC accession no. CRL-1573) were grown in Dulbecco's modified Eagle's medium (DMEM, PAA) containing 10% (vol/vol) fetal calf serum (FCS, PAA), 1% (vol/vol) penicillin (PAA), 1% (vol/vol) streptomycin (PAA), 1% (vol/vol), L- glutamine (PAA) at 37 °C in a 5% (vol/vol) CO2 atmosphere. Mitochondrial extra ction. HEK-293 cells (ATCC accession no. CRL-1573) were treated with nicotinamide or […]2 at the indicated concentrations for 16 h. Cells were washed in PBS and lysed in 5 packed cell volumes of lysis buffer (20 mM HEPES/KOH, 250 mM sucrose; 10 mM KCl, 1.5 mM MgCl2, 1 mM EDTA, 1 mM EGTA, 1 mM DTT; 0.1 mM PMSF, 1uComplete Protease Inhibitor Cocktail (Roche), pH 7.5). Cells were then homogenized in a Dounce homogenizer and 10% (vol/vol) of sample was removed for use as whole cell extract (WCE). To the remaining lysate, unbroken cells and nuclei were removed by centrifugation (10 min, 800g). The supernatant was transferred and centrifuged (10 min, 7,000g) to pellet mitochondria. Mitochondria were washed twice in lysis buffer, repeating centrifugation after each wash, followed by resuspending washed mitochondria in lysis buffer. […] Lysates were cleared by centrifugation, protein concentrations were quantitated and normalized with 1u Laemmli Buffer. […]

human Sirt2 = target: T2, human Sirt2 (Homo sapiens, UniProt Q8IXJ6); assay: fluorescence-based in vitro sirtuin assay, substrate ZMAL
T2 sequence (Q8IXJ6 25-389): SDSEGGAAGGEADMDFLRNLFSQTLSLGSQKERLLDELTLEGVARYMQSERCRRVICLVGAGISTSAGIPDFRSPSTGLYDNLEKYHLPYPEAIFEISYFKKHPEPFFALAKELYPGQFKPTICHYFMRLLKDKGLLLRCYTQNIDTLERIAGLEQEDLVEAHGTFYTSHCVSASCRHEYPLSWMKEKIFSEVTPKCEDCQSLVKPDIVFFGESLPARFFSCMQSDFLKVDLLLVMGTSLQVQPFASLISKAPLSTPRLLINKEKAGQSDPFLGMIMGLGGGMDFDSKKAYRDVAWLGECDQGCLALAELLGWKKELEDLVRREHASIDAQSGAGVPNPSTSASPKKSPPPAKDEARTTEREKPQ

BubR1 in HeLa cells = assay: abundance of BubR1, western blot; type: cell-based; conditions: various concentrations, 16 h
Protocol: Cells were washed with PBS, lysed in IPLS (50 mM Tris/HCl, 150 mM NaCl, 0.5 mM EDTA, 0.5% (v/v) NP-40, pH 7.5, supplemented with Complete protease inhibitors (Roche)). Samples were pelleted and resuspended in 1 × SDS–PAGE sample buffer and heated (95 °C, 5 min). Cell samples were separated using SDS–PAGE (10% (w/v) polyacrylamide), transferred to a nitrocellulose membrane (Bio-Rad), blocked with non-fat dry milk (Roth, 5% (w/v), TBS, 0.1% (v/v) Tween 20) and probed with the anti-BubR1 (1:5,000, BD Biosciences, 612502) and anti-tubulin (1:5,000, Sigma-Aldrich, T5168) as a loading control. Uncropped blots are shown in the Supplementary Fig. 8.

[4] = tested on: α-tubulin acetylation in HeLa cells; assay: tubulin acetylation, western blot; type: cell-based; conditions: various concentrations, 5 h
Text: Cell samples were then separated using SDS–PAGE (12.5% (w/v) polyacrylamide), transferred to an activated nitrocellulose membrane (Bio-Rad), blocked with non-fat dry milk (Roth, 5% (w/v), TBS, 0.1% (v/v) Tween 20) and probed with an anti-acetyl-α-tubulin antibody (1:1,000, Sigma-Aldrich, T6793) and an anti-GAPDH antibody (1:2,000–1:5,000, Sigma-Aldrich, G9545) as a loading control (Fusion SL, peqlab). An uncropped blot is shown in Supplementary Fig. 8.

SMILES: N#C/C(=C\c1ccc(-c2cc(Cl)ccc2Cl)o1)C(=O)Nc1cccc2ncccc12 [AGK2, reference compound]
acetylation level of the microtubule network ([1]; 20 μM): hyperacetylation of the microtubule network
activity of Sirt1 (human Sirt1): not affected

SMILES: NC(=O)[C@H]1CCCCc2c1[nH]c1ccc(Cl)cc21 [CHIC-35]
IC50/kd for Sirt2 (Sirt2; published values, Supplementary Table 1): 2.4 µM
Selectivity Sirt1/Sirt2/Sirt3 (fold): Sirt2 (Sirt2; selectivity profile, Sirt2 entry): 23 fold
Selectivity Sirt1/Sirt2/Sirt3 (fold): Sirt1 (Sirt1): 1 fold
Selectivity Sirt1/Sirt2/Sirt3 (fold): Sirt3 (Sirt3): > 833 fold

SMILES: NC(=O)c1cccnc1 [NCA, nicotinamide, reference compound]
acetylation of p53 (Lys382) after ultraviolet exposure [2]: further increased
acetylation of p53 (Lys382) after ultraviolet exposure ([2]; listed as nicotinamide): increase
acetylation of mitochondrial proteins [3]: increase

SMILES: O=C(Nc1ccccc1-c1cn2c(CN3CCNCC3)csc2n1)c1cnc2ccccc2n1 [SRT1720]
Selectivity Sirt1/Sirt2/Sirt3 (fold): Sirt1 (Sirt1): activation
Selectivity Sirt1/Sirt2/Sirt3 (fold): Sirt3 (Sirt3): 1 fold

More lines, main results first:

IC50 (human Sirt2): 2.3 µM
SMILES: O=C(CSc1ncccn1)Nc1ncc(Cc2cccc3ccccc23)s1 [SirReal3]

IC50 (human Sirt2): 16.8 µM
SMILES: O=C(CSc1ncccn1)Nc1ncc(Cc2ccccc2)s1 [SirReal4]

IC50 (human Sirt2): > 50 µM
SMILES: Cc1cc(C)cc(SCC(=O)Nc2ncc(Cc3cccc4ccccc34)s2)c1 [SirReal5]
abundance of BubR1 (BubR1 in HeLa cells): did not influence
acetylation of p53 (Lys382) after ultraviolet exposure [2]: did not observe an increase

IC50 (human Sirt2): > 100 µM
SMILES: Cc1cc(C)nc(SCC(=O)N(C)c2ncc(Cc3cccc4ccccc34)s2)n1 [SirReal6]
level of α-tubulin acetylation [4]: not
acetylation level of the microtubule network ([1]; 50 μM): does not alter; also recorded: no substantial change
abundance of BubR1 (BubR1 in HeLa cells): did not influence
acetylation of p53 (Lys382) after ultraviolet exposure [2]: did not observe an increase

Source: publication PMC4339887, “Selective Sirt2 inhibition by ligand-induced rearrangement of the active site” (Nature Communications, 2015)
